From PubChem BioAssay (NCI)
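48-hour exposure; five concentrations; linearly interpolated endpoints. TGI denotes the concentration required for complete inhibition of growth.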

Legend:
Experiment in all cases: DTP human tumour cell line panel, 48 h
SNB-19 CNS = system: SNB-19 CNS
SW-620 colon = system: SW-620 colon
UACC-62 melanoma = system: UACC-62 melanoma
SK-MEL-5 melanoma = system: SK-MEL-5 melanoma
SK-OV-3 ovarian = system: SK-OV-3 ovarian
RXF 393 renal = system: RXF 393 renal
SF-539 CNS = system: SF-539 CNS
786-0 renal = system: 786-0 renal
OVCAR-3 ovarian = system: OVCAR-3 ovarian
HOP-62 NSCLC = system: HOP-62 NSCLC
KM20L2 colon = system: KM20L2 colon
IGROV1 ovarian = system: IGROV1 ovarian
HL-60(TB) leukemia = system: HL-60(TB) leukemia
KM12 colon = system: KM12 colon
DMS 114 small cell lung = system: DMS 114 small cell lung
SR leukemia = system: SR leukemia
A549 NSCLC = system: A549 NSCLC
HT29 colon = system: HT29 colon
HCC-2998 colon = system: HCC-2998 colon
UO-31 renal = system: UO-31 renal
MOLT-4 leukemia = system: MOLT-4 leukemia
M14 melanoma = system: M14 melanoma
U251 CNS = system: U251 CNS
XF 498 CNS = system: XF 498 CNS
CCRF-CEM leukemia = system: CCRF-CEM leukemia
NCI-H226 lung = system: NCI-H226 lung
UACC-257 melanoma = system: UACC-257 melanoma
SNB-75 CNS = system: SNB-75 CNS
SF-295 CNS = system: SF-295 CNS
TK-10 renal = system: TK-10 renal
SF-268 CNS = system: SF-268 CNS
OVCAR-5 ovarian = system: OVCAR-5 ovarian
EKVX NSCLC = system: EKVX NSCLC
DLD-1 colon = system: DLD-1 colon
OVCAR-8 ovarian = system: OVCAR-8 ovarian
COLO 205 colon = system: COLO 205 colon
HCT-15 colon = system: HCT-15 colon
OVCAR-4 ovarian = system: OVCAR-4 ovarian
NCI-H460 lung = system: NCI-H460 lung
HCT-116 colon = system: HCT-116 colon
NCI-H23 lung = system: NCI-H23 lung
LOX IMVI melanoma = system: LOX IMVI melanoma
K-562 leukemia = system: K-562 leukemia
RPMI-8226 leukemia = system: RPMI-8226 leukemia
DMS 273 small cell lung = system: DMS 273 small cell lung
LXFL 529 NSCLC = system: LXFL 529 NSCLC
SN12C renal = system: SN12C renal
SNB-78 CNS = system: SNB-78 CNS
M19-MEL melanoma = system: M19-MEL melanoma
ACHN renal = system: ACHN renal
SK-MEL-28 melanoma = system: SK-MEL-28 melanoma
CAKI-1 renal = system: CAKI-1 renal
HOP-92 NSCLC = system: HOP-92 NSCLC
MALME-3M melanoma = system: MALME-3M melanoma
SK-MEL-2 melanoma = system: SK-MEL-2 melanoma
NCI-H522 lung = system: NCI-H522 lung
NCI/ADR-RES ovarian = system: NCI/ADR-RES ovarian
MDA-MB-231 breast = system: MDA-MB-231 breast
T-47D breast = system: T-47D breast
MDA-N = system: MDA-N
HS 578T breast = system: HS 578T breast
BT-549 breast = system: BT-549 breast
DU-145 prostate = system: DU-145 prostate
PC-3 prostate = system: PC-3 prostate
A498 renal = system: A498 renal
MCF7 breast = system: MCF7 breast
MDA-MB-435 = system: MDA-MB-435

NC(=O)NC1=NC(Cc2ccccc2)C(=O)N1Cc1ccccc1 (stereo unspecified)
TGI (SNB-19 CNS): > 100 µM
TGI (SW-620 colon): > 100 µM
TGI (UACC-62 melanoma): > 100 µM
TGI (SK-MEL-5 melanoma): > 100 µM
TGI (SK-OV-3 ovarian): > 100 µM
TGI (RXF 393 renal): > 100 µM
TGI (SF-539 CNS): > 100 µM
TGI (786-0 renal): > 100 µM
TGI (OVCAR-3 ovarian): > 100 µM
TGI (HOP-62 NSCLC): > 100 µM
TGI (KM20L2 colon): > 100 µM
TGI (IGROV1 ovarian): > 100 µM
TGI (HL-60(TB) leukemia): > 100 µM
TGI (KM12 colon): > 100 µM
TGI (DMS 114 small cell lung): > 100 µM
TGI (SR leukemia): > 100 µM
TGI (A549 NSCLC): > 100 µM
TGI (HT29 colon): > 100 µM
TGI (HCC-2998 colon): > 100 µM
TGI (UO-31 renal): > 100 µM
TGI (MOLT-4 leukemia): > 100 µM
TGI (M14 melanoma): > 100 µM
TGI (U251 CNS): > 100 µM
TGI (XF 498 CNS): > 100 µM
TGI (CCRF-CEM leukemia): > 100 µM
TGI (NCI-H226 lung): > 100 µM
TGI (UACC-257 melanoma): > 100 µM
TGI (SNB-75 CNS): > 100 µM
TGI (SF-295 CNS): > 100 µM
TGI (TK-10 renal): > 100 µM
TGI (SF-268 CNS): > 100 µM
TGI (OVCAR-5 ovarian): > 100 µM
TGI (EKVX NSCLC): > 100 µM
TGI (DLD-1 colon): > 100 µM
TGI (OVCAR-8 ovarian): > 100 µM
TGI (COLO 205 colon): > 100 µM
TGI (HCT-15 colon): > 100 µM
TGI (OVCAR-4 ovarian): > 100 µM
TGI (NCI-H460 lung): > 100 µM
TGI (HCT-116 colon): > 100 µM
TGI (NCI-H23 lung): > 100 µM
TGI (LOX IMVI melanoma): > 100 µM
TGI (K-562 leukemia): > 100 µM
TGI (RPMI-8226 leukemia): > 100 µM
TGI (DMS 273 small cell lung): > 100 µM
TGI (LXFL 529 NSCLC): > 100 µM
TGI (SN12C renal): > 100 µM
TGI (SNB-78 CNS): > 100 µM
TGI (M19-MEL melanoma): > 100 µM
TGI (ACHN renal): > 100 µM
TGI (SK-MEL-28 melanoma): > 100 µM

CC(=O)N1CC(=O)NC1=S
TGI (CAKI-1 renal): > 100 µM
TGI (SNB-19 CNS): > 100 µM
TGI (SW-620 colon): > 100 µM
TGI (UACC-62 melanoma): > 100 µM
TGI (SK-MEL-5 melanoma): > 100 µM
TGI (SK-OV-3 ovarian): > 100 µM
TGI (HOP-92 NSCLC): > 100 µM
TGI (SF-539 CNS): > 100 µM
TGI (786-0 renal): > 100 µM
TGI (MALME-3M melanoma): > 100 µM
TGI (OVCAR-3 ovarian): > 100 µM
TGI (HOP-62 NSCLC): > 100 µM
TGI (KM20L2 colon): > 100 µM
TGI (IGROV1 ovarian): > 100 µM
TGI (HL-60(TB) leukemia): > 100 µM
TGI (KM12 colon): > 100 µM
TGI (DMS 114 small cell lung): > 100 µM
TGI (SR leukemia): > 100 µM
TGI (A549 NSCLC): > 100 µM
TGI (HT29 colon): > 100 µM
TGI (UO-31 renal): > 100 µM
TGI (MOLT-4 leukemia): > 100 µM
TGI (M14 melanoma): > 100 µM
TGI (U251 CNS): > 100 µM
TGI (SK-MEL-2 melanoma): > 100 µM
TGI (XF 498 CNS): > 100 µM
TGI (CCRF-CEM leukemia): > 100 µM
TGI (NCI-H226 lung): > 100 µM
TGI (UACC-257 melanoma): > 100 µM
TGI (SNB-75 CNS): > 100 µM
TGI (SF-295 CNS): > 100 µM
TGI (TK-10 renal): > 100 µM
TGI (SF-268 CNS): > 100 µM
TGI (OVCAR-5 ovarian): > 100 µM
TGI (EKVX NSCLC): > 100 µM
TGI (DLD-1 colon): > 100 µM
TGI (OVCAR-8 ovarian): > 100 µM
TGI (NCI-H522 lung): > 100 µM
TGI (COLO 205 colon): > 100 µM
TGI (HCT-15 colon): > 100 µM
TGI (OVCAR-4 ovarian): > 100 µM
TGI (HCT-116 colon): > 100 µM
TGI (NCI-H23 lung): > 100 µM
TGI (LOX IMVI melanoma): > 100 µM
TGI (K-562 leukemia): > 100 µM
TGI (RPMI-8226 leukemia): > 100 µM
TGI (DMS 273 small cell lung): > 100 µM
TGI (LXFL 529 NSCLC): > 100 µM
TGI (SN12C renal): > 100 µM
TGI (SNB-78 CNS): > 100 µM
TGI (M19-MEL melanoma): > 100 µM
TGI (ACHN renal): > 100 µM
TGI (SK-MEL-28 melanoma): > 100 µM

CNC(=O)NC(CCCCNC(=O)OCc1ccccc1)C(=O)OCc1ccccc1 (stereo unspecified)
TGI (CAKI-1 renal): > 80.2 µM
TGI (SNB-19 CNS): > 100 µM
TGI (SW-620 colon): > 100 µM
TGI (UACC-62 melanoma): 33.1 µM
TGI (SK-MEL-5 melanoma): 31.5 µM
TGI (SK-OV-3 ovarian): > 100 µM
TGI (HOP-92 NSCLC): 45.3 µM
TGI (RXF 393 renal): 53.6 µM
TGI (NCI/ADR-RES ovarian): > 100 µM
TGI (SF-539 CNS): 49.9 µM
TGI (786-0 renal): > 100 µM
TGI (MALME-3M melanoma): 64.9 µM
TGI (OVCAR-3 ovarian): 57.9 µM
TGI (HOP-62 NSCLC): > 100 µM
TGI (KM20L2 colon): > 100 µM
TGI (IGROV1 ovarian): > 100 µM
TGI (HL-60(TB) leukemia): 65.6 µM
TGI (KM12 colon): > 100 µM
TGI (DMS 114 small cell lung): 85.4 µM
TGI (SR leukemia): 99.5 µM
TGI (A549 NSCLC): > 100 µM
TGI (HT29 colon): > 100 µM
TGI (HCC-2998 colon): > 72.9 µM
TGI (UO-31 renal): 98.3 µM
TGI (MOLT-4 leukemia): 58.7 µM
TGI (M14 melanoma): 43 µM
TGI (U251 CNS): > 97.1 µM
TGI (SK-MEL-2 melanoma): 38.4 µM
TGI (XF 498 CNS): 31.8 µM
TGI (CCRF-CEM leukemia): 71.8 µM
TGI (MDA-MB-231 breast): > 73.9 µM
TGI (T-47D breast): 51.3 µM
TGI (MDA-N): 44 µM
TGI (HS 578T breast): > 100 µM
TGI (BT-549 breast): > 100 µM
TGI (DU-145 prostate): > 100 µM
TGI (NCI-H226 lung): > 88.6 µM
TGI (UACC-257 melanoma): 36.8 µM
TGI (PC-3 prostate): > 100 µM
TGI (SNB-75 CNS): 43.9 µM
TGI (SF-295 CNS): > 100 µM
TGI (TK-10 renal): 99 µM
TGI (A498 renal): 71.4 µM
TGI (SF-268 CNS): > 100 µM
TGI (OVCAR-5 ovarian): 98.2 µM
TGI (EKVX NSCLC): > 100 µM
TGI (DLD-1 colon): > 100 µM
TGI (OVCAR-8 ovarian): > 87.5 µM
TGI (NCI-H522 lung): 21.4 µM
TGI (COLO 205 colon): 34.2 µM
TGI (HCT-15 colon): > 100 µM
TGI (OVCAR-4 ovarian): > 100 µM
TGI (NCI-H460 lung): > 100 µM
TGI (HCT-116 colon): > 100 µM
TGI (MCF7 breast): > 100 µM
TGI (NCI-H23 lung): > 100 µM
TGI (LOX IMVI melanoma): > 78.2 µM
TGI (K-562 leukemia): 89.4 µM
TGI (MDA-MB-435): 39.5 µM
TGI (RPMI-8226 leukemia): 67.4 µM
TGI (DMS 273 small cell lung): > 100 µM
TGI (LXFL 529 NSCLC): > 100 µM
TGI (SN12C renal): > 84.6 µM
TGI (SNB-78 CNS): > 91.7 µM
TGI (M19-MEL melanoma): 40.7 µM
TGI (ACHN renal): > 100 µM
TGI (SK-MEL-28 melanoma): 41.5 µM
